“And” between values parts separate entries of the source, which are not always exact repeats. Equal entries are not always repeated.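 Test compounds were applied to cells in 96-well plates for 48 hours at 5 doses. GI50 marks 50% less growth. TGI marks complete inhibition of growth.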
Columns and labels:
Assay in all cases: growth of human tumour cells (NCI), 48 h
[1] = system: DU-145 prostate
[2] = system: PC-3 prostate
[3] = system: HOP-18 NSCLC
[4] = system: SW-620 colon
[5] = system: LXFL 529 NSCLC
[6] = system: SK-OV-3 ovarian
[7] = system: M19-MEL melanoma
[8] = system: MDA-N
[9] = system: SK-MEL-28 melanoma
[10] = system: RXF-631 renal
[11] = system: DMS 114 small cell lung
[12] = system: MDA-MB-231 breast
[13] = system: BT-549 breast
[14] = system: SNB-78 CNS
[15] = system: XF 498 CNS
[16] = system: HS 578T breast
[17] = system: DMS 273 small cell lung
[18] = system: KM20L2 colon
[19] = system: T-47D breast
[20] = system: DLD-1 colon
[21] = system: NCI-H522 lung
[22] = system: CAKI-1 renal
[23] = system: KM12 colon
[24] = system: SK-MEL-2 melanoma
[25] = system: SNB-75 CNS
[26] = system: NCI-H460 lung
[27] = system: HL-60(TB) leukemia
[28] = system: MOLT-4 leukemia
[29] = system: A549 NSCLC
[30] = system: K-562 leukemia
[31] = system: M14 melanoma
[32] = system: NCI-H226 lung
[33] = system: OVCAR-4 ovarian
[34] = system: IGROV1 ovarian
[35] = system: HT29 colon
[36] = system: OVCAR-8 ovarian
[37] = system: U251 CNS
[38] = system: CCRF-CEM leukemia
[39] = system: SN12C renal
[40] = system: A498 renal
[41] = system: UACC-257 melanoma
[42] = system: ACHN renal
[43] = system: OVCAR-3 ovarian
[44] = system: COLO 205 colon
[45] = system: OVCAR-5 ovarian
[46] = system: UACC-62 melanoma
[47] = system: SF-539 CNS
[48] = system: EKVX NSCLC
[49] = system: SF-268 CNS
[50] = system: SNB-19 CNS
[51] = system: HOP-62 NSCLC
[52] = system: MALME-3M melanoma
[53] = system: TK-10 renal
[54] = system: RPMI-8226 leukemia
[55] = system: SR leukemia
[56] = system: 786-0 renal
[57] = system: RXF 393 renal
[58] = system: HCT-116 colon
[59] = system: LOX IMVI melanoma
[60] = system: SK-MEL-5 melanoma
[61] = system: HOP-92 NSCLC
[62] = system: SF-295 CNS
[63] = system: HCT-15 colon
[64] = system: HCC-2998 colon
[65] = system: NCI-H23 lung
[66] = system: UO-31 renal

Cc1cc2c(C(C)C)c(O)c(O)c(C=O)c2c(O)c1-c1c(C)cc2c(C(C)C)c(O)c(O)c(C=O)c2c1O
TGI [1]: 4.04 µM and 36.8 µM and 29.4 µM
TGI [2]: 7.11 µM and 33.8 µM and 24.5 µM
TGI [3]: 11.3 µM
TGI [4]: 30.8 µM [middle of 4 runs]
TGI [5]: 8.26 µM
TGI [6]: 8.26 µM and 50.9 µM and 31 µM
TGI [7]: 11.4 µM
TGI [8]: > 100 µM
GI50 [9]: 2.39 µM and 18 µM and 9.01 µM
TGI [10]: 25.3 µM
TGI [11]: 9.21 µM
GI50 [12]: 14.8 µM and 6.06 µM
TGI [12]: 34.5 µM and 16.6 µM
TGI [13]: 7.42 µM and 41.7 µM and 29.8 µM
TGI [14]: 25.8 µM
TGI [15]: 5.55 µM
TGI [16]: 13.5 µM and 36 µM and 27.8 µM
TGI [17]: 18.3 µM
TGI [18]: 11.4 µM
TGI [19]: 7.76 µM and 50.5 µM and 26.4 µM
TGI [20]: 15.5 µM

CCCCCCCSCC1C(=O)C23C(O)C1CCC2C12COC3(O)C(O)C1C(C)(C)CCC2O (configuration not stated)
TGI [21]: 3.04 µM
TGI [22]: 15.7 µM
TGI [23]: 23.9 µM
TGI [24]: 29.8 µM
TGI [25]: 49.2 µM
TGI [26]: 29.8 µM
TGI [3]: 25 µM
TGI [4]: 3.23 µM
TGI [27]: 16.3 µM
TGI [5]: 6.88 µM
TGI [28]: 28.2 µM
TGI [29]: 39.3 µM
TGI [30]: 15.8 µM
TGI [31]: 24.7 µM
TGI [32]: 33 µM
TGI [33]: 25.3 µM
TGI [34]: 36.2 µM
TGI [35]: 30 µM
TGI [6]: 32 µM
TGI [36]: 31.1 µM
TGI [37]: 22.7 µM
TGI [7]: 31.6 µM
TGI [38]: 14 µM
TGI [39]: 23.6 µM
TGI [40]: 26.9 µM
TGI [41]: 19.4 µM
TGI [42]: 24.9 µM
TGI [9]: 22.7 µM
TGI [10]: 22 µM
TGI [43]: 30.3 µM
TGI [44]: 15.1 µM
TGI [45]: 31.4 µM
TGI [46]: 24 µM
TGI [47]: 29.3 µM
TGI [11]: 23.1 µM
TGI [48]: 32.9 µM
TGI [49]: 33.9 µM
TGI [50]: 33.9 µM
TGI [51]: 37.9 µM
TGI [52]: 27.4 µM
TGI [53]: 29.5 µM
TGI [14]: 47.4 µM
TGI [54]: 27.3 µM
TGI [55]: 23.6 µM
TGI [56]: 26.7 µM
TGI [57]: 27.1 µM
TGI [15]: 33.4 µM
TGI [58]: 18.7 µM
TGI [59]: 29.2 µM
TGI [60]: 25.1 µM
TGI [17]: 27.3 µM
TGI [61]: 31.8 µM
TGI [62]: 33.4 µM
TGI [63]: 22.4 µM
TGI [18]: 25 µM
TGI [20]: 30 µM
TGI [64]: 31.4 µM
TGI [65]: 34 µM
TGI [66]: 23.5 µM

CC(C)(c1ccc(OC#N)cc1)c1ccc(OC#N)cc1
TGI [21]: > 31.6 µM
TGI [22]: > 100 µM
TGI [23]: > 100 µM
TGI [24]: > 100 µM
TGI [25]: > 94.7 µM
TGI [26]: > 82.4 µM
TGI [3]: > 100 µM
TGI [4]: > 100 µM
TGI [27]: > 77.7 µM
TGI [5]: > 100 µM
TGI [28]: > 100 µM
TGI [29]: > 100 µM
TGI [30]: > 100 µM
TGI [31]: > 100 µM
TGI [32]: > 100 µM
TGI [33]: > 100 µM
TGI [34]: > 100 µM
TGI [35]: > 100 µM
TGI [6]: > 100 µM
TGI [36]: > 100 µM
TGI [37]: > 100 µM
TGI [7]: > 100 µM
TGI [38]: > 73.7 µM
TGI [39]: > 100 µM
TGI [40]: > 100 µM
TGI [41]: > 100 µM
TGI [42]: > 100 µM
TGI [9]: > 100 µM
TGI [10]: > 100 µM
TGI [43]: > 100 µM
TGI [44]: > 67.7 µM
TGI [45]: > 100 µM
TGI [46]: > 100 µM
TGI [47]: > 100 µM
TGI [11]: > 56.9 µM
TGI [48]: > 100 µM
TGI [49]: > 100 µM
TGI [50]: > 100 µM
TGI [51]: > 100 µM
TGI [52]: > 100 µM
TGI [53]: > 100 µM
TGI [14]: > 100 µM
TGI [54]: > 72.5 µM
TGI [55]: 50.5 µM
TGI [56]: > 100 µM
TGI [57]: > 100 µM
TGI [58]: > 61 µM
TGI [59]: > 70.8 µM
TGI [60]: > 100 µM
TGI [61]: > 100 µM
TGI [62]: > 100 µM
TGI [63]: 39.7 µM
TGI [18]: > 100 µM
TGI [20]: > 100 µM
TGI [64]: > 100 µM
TGI [65]: > 100 µM
TGI [66]: > 100 µM

— PubChem BioAssay (NCI)
